Test results reported in ChEMBL document CHEMBL4433214, “Investigation around the Oxadiazole Core in the Discovery of a New Chemotype of Potent and Selective FXR Antagonists” (ACS Med Chem Lett, 2019).
The source made the active and inactive calls. No cut-off for these calls is given here.

Legend:
[1] = molecular target: T1, Nuclear receptor subfamily 1 group I member 2 (Homo sapiens, UniProt O75469); experiment: Agonist activity at human PXR transfected in HepG2 at 10 uM by luciferase reporter assay; type: cell-based; conditions: hepg2, 10 µM
T1 sequence (O75469 whole entry): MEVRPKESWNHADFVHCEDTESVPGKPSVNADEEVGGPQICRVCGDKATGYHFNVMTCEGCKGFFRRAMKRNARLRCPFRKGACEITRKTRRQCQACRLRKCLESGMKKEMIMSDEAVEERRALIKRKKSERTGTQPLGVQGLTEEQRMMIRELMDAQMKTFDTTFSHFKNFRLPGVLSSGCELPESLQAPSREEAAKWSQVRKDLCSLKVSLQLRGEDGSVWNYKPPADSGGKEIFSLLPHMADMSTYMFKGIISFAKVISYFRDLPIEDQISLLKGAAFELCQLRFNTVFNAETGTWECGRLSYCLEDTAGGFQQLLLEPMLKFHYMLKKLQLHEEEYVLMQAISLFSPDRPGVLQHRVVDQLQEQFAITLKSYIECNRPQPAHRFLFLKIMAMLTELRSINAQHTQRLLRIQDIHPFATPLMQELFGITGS

[2] = molecular target: T2, Oxysterols receptor LXR-alpha (Homo sapiens) (UniProt Q13133); experiment: Antagonist activity at human LXRalpha transfected in HepG2 at 5 uM in presence of LXRalpha agonist GW3965 by luciferase reporter assay; type: cell-based
T2 sequence (whole entry): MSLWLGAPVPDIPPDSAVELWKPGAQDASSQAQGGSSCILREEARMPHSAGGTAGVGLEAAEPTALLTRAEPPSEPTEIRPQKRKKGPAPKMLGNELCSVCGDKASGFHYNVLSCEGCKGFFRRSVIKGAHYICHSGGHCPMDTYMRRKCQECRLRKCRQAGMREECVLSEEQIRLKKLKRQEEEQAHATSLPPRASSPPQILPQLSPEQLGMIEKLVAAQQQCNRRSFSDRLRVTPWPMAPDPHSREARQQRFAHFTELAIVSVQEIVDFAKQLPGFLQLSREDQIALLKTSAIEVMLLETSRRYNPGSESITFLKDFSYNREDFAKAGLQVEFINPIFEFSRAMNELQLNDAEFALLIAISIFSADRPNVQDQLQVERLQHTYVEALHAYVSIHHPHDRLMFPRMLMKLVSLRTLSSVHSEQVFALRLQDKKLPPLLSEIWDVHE

Bile acid receptor = molecular target: T3, Bile acid receptor (Homo sapiens, UniProt Q96RI1); experiment: Antagonist activity at human FXR transfected in HepG2 cells assessed as inhibition of CDCA-induced receptor transactivation by luciferase reporter assay; type: cell-based
T3 sequence (Q96RI1 whole entry): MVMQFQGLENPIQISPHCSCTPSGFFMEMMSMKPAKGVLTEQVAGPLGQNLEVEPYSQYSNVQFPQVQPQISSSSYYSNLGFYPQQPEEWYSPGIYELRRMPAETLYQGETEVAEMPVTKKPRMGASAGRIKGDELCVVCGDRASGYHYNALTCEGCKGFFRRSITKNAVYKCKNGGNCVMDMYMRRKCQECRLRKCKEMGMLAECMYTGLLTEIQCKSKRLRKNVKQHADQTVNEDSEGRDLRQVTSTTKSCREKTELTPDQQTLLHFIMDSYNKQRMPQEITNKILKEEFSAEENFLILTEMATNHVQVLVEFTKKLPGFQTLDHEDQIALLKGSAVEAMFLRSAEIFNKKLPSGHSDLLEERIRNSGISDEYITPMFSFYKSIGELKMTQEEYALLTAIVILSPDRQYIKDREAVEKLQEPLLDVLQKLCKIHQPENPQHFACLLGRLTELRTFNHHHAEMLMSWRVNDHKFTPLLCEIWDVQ

[3] = Half life in rat liver microsomes at 1 uM incubated for 2 hrs by LC-MS/MS analysis
[4] = Intrinsic clearance in rat liver microsomes at 1 uM incubated for 2 hrs by LC-MS/MS analysis; conditions: read-out: CLH
[5] = Metabolic stability in rat liver microsomes assessed as parent compound remaining at 1 uM measured after 40 mins by LC-MS/MS analysis
[6] = molecular target: T4, Bile acid receptor (Homo sapiens) (UniProt Q96RI1); experiment: Antagonist activity at human FXR transfected in HepG2 cells assessed as inhibition of CDCA-induced receptor transactivation at 10 uM by luciferase reporter assay relative to control; type: cell-based; parameters: scale not given: the % may be the effect or the level left
T4 sequence (whole entry): T3 sequence (Q96RI1 whole entry)

[7] = molecular target: T5, Oxysterols receptor LXR-beta (Homo sapiens) (UniProt P55055); experiment: Agonist activity at human LXRbeta transfected in HepG2 at 10 uM by luciferase reporter assay; type: cell-based
T5 sequence (whole entry): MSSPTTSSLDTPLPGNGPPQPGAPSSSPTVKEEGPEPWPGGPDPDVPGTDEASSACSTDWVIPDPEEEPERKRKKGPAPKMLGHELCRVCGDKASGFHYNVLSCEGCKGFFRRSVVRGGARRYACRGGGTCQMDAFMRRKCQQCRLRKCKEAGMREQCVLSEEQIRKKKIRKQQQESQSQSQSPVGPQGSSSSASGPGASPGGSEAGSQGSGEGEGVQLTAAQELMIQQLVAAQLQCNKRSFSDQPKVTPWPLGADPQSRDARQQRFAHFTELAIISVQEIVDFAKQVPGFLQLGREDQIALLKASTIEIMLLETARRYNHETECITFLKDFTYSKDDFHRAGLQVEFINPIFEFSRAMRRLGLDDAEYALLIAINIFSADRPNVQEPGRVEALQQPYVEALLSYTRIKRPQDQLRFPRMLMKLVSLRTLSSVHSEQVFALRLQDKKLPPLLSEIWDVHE

[8] = Lipophilicity, log D of the compound by LC-MS/MS analysis; type: physicochemical; conditions: octanol/water
[9] = molecular target: T6, Peroxisome proliferator-activated receptor gamma (Homo sapiens) (UniProt P37231); experiment: Agonist activity at human PPARgamma transfected in HepG2 at 10 uM by luciferase reporter assay; type: cell-based
T6 sequence (whole entry): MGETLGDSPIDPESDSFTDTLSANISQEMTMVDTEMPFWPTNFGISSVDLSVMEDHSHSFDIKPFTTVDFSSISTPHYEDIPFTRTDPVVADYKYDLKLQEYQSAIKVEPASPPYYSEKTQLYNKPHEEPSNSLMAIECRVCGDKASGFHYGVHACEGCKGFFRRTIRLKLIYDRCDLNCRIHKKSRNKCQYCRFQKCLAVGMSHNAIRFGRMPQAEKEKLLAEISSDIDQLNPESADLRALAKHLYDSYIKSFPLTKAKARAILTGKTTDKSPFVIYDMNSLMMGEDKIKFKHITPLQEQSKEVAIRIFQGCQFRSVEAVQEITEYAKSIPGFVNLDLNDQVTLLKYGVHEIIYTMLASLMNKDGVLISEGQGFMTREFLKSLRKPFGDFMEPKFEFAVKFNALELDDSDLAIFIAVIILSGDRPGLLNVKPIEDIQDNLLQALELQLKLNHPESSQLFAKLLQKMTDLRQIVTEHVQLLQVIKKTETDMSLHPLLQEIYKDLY

Structure (SMILES): c1ccc2cc(-c3noc(C4CCNCC4)n3)ccc2c1
- Activity [1]: Not Active
- Activity [2]: inactive
- IC50 (Bile acid receptor): 0.58 µM
- half-life at 1 µM [3]: 1.86 h
- microsomal CLint at 1 µM [4]: 20.7 µL/min/mg
- remaining at 40 min, 1 µM [5]: 76.2%
- Activity [6]: 80%
- Activity [7]: inactive
- logD [8]: 0.34
- Activity [9]: inactive
